Experimental data taken from ChEMBL document CHEMBL1154617, “Synthesis and biological evaluation of 17beta-hydroxysteroid dehydrogenase type 1 (17beta-HSD1) inhibitors based on a thieno[2,3-d]pyrimidin-4(3H)-one core” (J Med Chem, 2009).
Calls of active or inactive are those of the source. No cut-off for these calls is given here.

Key:
[1] = molecular target: T1, 17-beta-hydroxysteroid dehydrogenase type 1 (Homo sapiens) (UniProt P14061); test: Inhibition of human recombinant 17beta-HSD1 at 1 uM by cell-free assay; format: single protein
T1 sequence (whole entry): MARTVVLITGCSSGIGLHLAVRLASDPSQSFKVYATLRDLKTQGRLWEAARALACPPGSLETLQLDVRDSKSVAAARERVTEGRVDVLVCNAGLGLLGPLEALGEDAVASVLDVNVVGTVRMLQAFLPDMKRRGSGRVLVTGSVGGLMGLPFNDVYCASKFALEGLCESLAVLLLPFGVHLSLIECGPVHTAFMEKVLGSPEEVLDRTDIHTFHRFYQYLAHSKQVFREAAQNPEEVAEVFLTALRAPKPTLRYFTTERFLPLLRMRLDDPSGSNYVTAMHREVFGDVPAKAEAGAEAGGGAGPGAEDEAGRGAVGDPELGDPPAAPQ

[2] = molecular target: T1, 17-beta-hydroxysteroid dehydrogenase type 1 (Homo sapiens); test: Inhibition of human recombinant 17beta-HSD1 expressed in human MCF7 cells at 0.1 uM by cell-based assay
[3] = molecular target: T1, 17-beta-hydroxysteroid dehydrogenase type 1 (Homo sapiens); test: Inhibition of human recombinant 17beta-HSD1 expressed in human MCF7 cells at 1 uM by cell-based assay
[4] = molecular target: T1, 17-beta-hydroxysteroid dehydrogenase type 1 (Homo sapiens); test: Inhibition of human recombinant 17beta-HSD1 at 0.1 uM by cell-free assay; format: single protein
[5] = molecular target: T2, 17-beta-hydroxysteroid dehydrogenase type 2 (Homo sapiens) (UniProt P37059); test: Inhibition of human recombinant 17beta-HSD2 at 0.1 uM by cell-free assay
T2 sequence (whole entry): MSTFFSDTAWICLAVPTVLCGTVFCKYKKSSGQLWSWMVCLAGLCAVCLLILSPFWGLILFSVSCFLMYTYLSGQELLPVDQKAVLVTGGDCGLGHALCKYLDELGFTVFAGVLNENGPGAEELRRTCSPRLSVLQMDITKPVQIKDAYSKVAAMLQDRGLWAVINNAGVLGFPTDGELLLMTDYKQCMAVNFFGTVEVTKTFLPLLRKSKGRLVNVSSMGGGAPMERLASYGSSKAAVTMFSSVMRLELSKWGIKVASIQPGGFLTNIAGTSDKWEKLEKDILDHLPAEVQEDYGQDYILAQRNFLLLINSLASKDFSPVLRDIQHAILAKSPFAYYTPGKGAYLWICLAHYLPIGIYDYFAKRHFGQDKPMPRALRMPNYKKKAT

[6] = molecular target: T2, 17-beta-hydroxysteroid dehydrogenase type 2 (Homo sapiens); test: Inhibition of human recombinant 17beta-HSD2 at 1 uM by cell-free assay
[7] = molecular target: T3, Estrogen receptor (Homo sapiens, UniProt P03372); test: Activity at human recombinant ERalpha by fluorescence polarization assay
T3 sequence (P03372 whole entry): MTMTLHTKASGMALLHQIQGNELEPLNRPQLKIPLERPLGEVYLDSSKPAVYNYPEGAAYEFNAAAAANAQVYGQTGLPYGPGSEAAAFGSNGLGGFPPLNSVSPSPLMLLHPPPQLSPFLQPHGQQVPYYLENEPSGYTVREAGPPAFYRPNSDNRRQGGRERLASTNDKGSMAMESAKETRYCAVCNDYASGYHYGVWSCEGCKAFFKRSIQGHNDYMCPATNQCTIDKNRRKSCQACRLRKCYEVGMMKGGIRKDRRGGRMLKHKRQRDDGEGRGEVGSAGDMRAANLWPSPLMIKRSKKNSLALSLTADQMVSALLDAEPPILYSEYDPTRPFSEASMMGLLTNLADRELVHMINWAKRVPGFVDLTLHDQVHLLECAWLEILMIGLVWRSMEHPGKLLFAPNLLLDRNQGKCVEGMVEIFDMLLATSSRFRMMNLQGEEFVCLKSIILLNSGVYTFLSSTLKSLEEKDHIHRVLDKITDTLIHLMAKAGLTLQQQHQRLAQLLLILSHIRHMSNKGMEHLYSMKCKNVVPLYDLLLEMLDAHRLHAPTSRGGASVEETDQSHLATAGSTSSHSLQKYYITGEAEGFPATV

[8] = molecular target: Estrogen receptor beta (Homo sapiens, UniProt Q92731); test: Activity at human recombinant ERbeta by fluorescence polarization assay
Estrogen receptor beta, sequence (Q92731 whole entry): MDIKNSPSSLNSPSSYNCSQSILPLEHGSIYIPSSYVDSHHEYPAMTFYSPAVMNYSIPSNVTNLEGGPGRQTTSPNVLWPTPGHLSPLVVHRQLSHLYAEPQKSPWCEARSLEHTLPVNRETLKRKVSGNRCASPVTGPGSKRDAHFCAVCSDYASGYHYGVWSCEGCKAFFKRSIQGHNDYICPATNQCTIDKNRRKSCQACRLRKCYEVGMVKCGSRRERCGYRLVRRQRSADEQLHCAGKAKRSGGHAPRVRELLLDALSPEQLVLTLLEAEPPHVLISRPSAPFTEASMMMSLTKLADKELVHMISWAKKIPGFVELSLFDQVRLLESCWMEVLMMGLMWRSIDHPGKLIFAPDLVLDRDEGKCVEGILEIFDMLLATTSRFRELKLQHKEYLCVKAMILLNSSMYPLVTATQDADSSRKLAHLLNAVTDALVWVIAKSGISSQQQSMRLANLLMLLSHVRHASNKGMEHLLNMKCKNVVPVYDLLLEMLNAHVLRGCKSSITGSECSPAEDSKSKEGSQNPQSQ

inhibition [1]	inhibition [2]	inhibition [3]	inhibition [4]	inhibition [5]	inhibition [6]	EC50 [7]	EC50 [8]	SMILES
39.9%	25.9%	36.2%	14.5%					O=c1c2c3c(sc2nc2n1CCCCC2)C(Cl)=C(CO)CC3
2.9%			0.1%	19.7%	41.1%			CCCSC1=C(/C=N/O)CCc2c1sc1nc3n(c(=O)c21)CCCCC3
23.2%	10%	45.9%	8%					O=c1c2c3c(sc2nc2n1CCCCC2)CCCC3
17.9%	14%	15.1%	4.1%					O=c1c2c3c(sc2nc2n1CCCCC2)C(Cl)=C(/C=N/O)CC3
87%	43.9%	100%	35.2%	inactive	inactive			CCCSC1=C(C=O)CCCc2c1sc1nc3n(c(=O)c21)CCCCC3
95.2%	74%	100%	72.9%	inactive	5.3%	> 1000 nM	> 1000 nM	CCCSC1=C(C=O)CCc2c1sc1nc3n(c(=O)c21)CCCCC3
93.4%	54.1%	100%	67.6%	inactive	7.8%			CCCCSC1=C(C=O)CCc2c1sc1nc3n(c(=O)c21)CCCCC3
94.5%	66.1%	100%	71.3%	inactive	2%			CCSC1=C(C=O)CCc2c1sc1nc3n(c(=O)c21)CCCCC3
89.6%	33.6%	87%	49.8%	inactive	1.2%	> 10000 nM	> 1000 nM	CC(C)(C)SC1=C(C=O)CCc2c1sc1nc3n(c(=O)c21)CCCCC3
74.7%	15.6%	57%	63.3%	31.4%	36.9%	> 1000 nM	> 1000 nM	CCCSC1=C(C=O)CCc2c1sc1nc3n(c(=O)c21)CCCCCC3
2.8%			0.3%					O=CC1=C(SCCC(=O)O)c2sc3nc4n(c(=O)c3c2CC1)CCCCC4
26.1%	19.7%	38.6%	3.3%					O=CC1=C(Cl)c2sc3nc4n(c(=O)c3c2CC1)CCC4
13.9%	8.4%	8.9%	1.1%					CCCSC1=C(/C=C/C(C)=O)CCc2c1sc1nc3n(c(=O)c21)CCCCC3
						> 10000 nM		O=CC1=C(Cl)c2sc3nc4n(c(=O)c3c2CCC1)CCCCC4
87.4%	40.3%	80.5%	46.6%	inactive	inactive	> 10000 nM	> 1000 nM	O=CC1=C(SC2CCCC2)c2sc3nc4n(c(=O)c3c2CC1)CCCCC4
3.8%	6.3%	35.8%	inactive					O=C1CCCc2c1sc1nc3n(c(=O)c21)CCCC3
1.8%	36.5%	76.8%	58.5%	21.7%	22.6%			O=CC1=C(Sc2ccc(O)cc2)c2sc3nc4n(c(=O)c3c2CC1)CCCCC4
92.9%	71.9%	100%	64.7%	inactive	inactive			CC(C)SC1=C(C=O)CCc2c1sc1nc3n(c(=O)c21)CCCCC3

The remaining lines, values behind:

SMILES	inhibition [1]	inhibition [2]	inhibition [3]	inhibition [4]	inhibition [5]	inhibition [6]	EC50 [7]	EC50 [8]
O=CC1=C(SC2CCCCC2)c2sc3nc4n(c(=O)c3c2CC1)CCCCC4	82.2%	32.7%	63.9%	51.2%	inactive	inactive	> 10000 nM	> 1000 nM
O=c1c2c(nc3n1CCCCC3)sc1c(Sc3ccccc3)c(CO)ccc12	87.5%	30.5%	46.9%	80.5%	30.8%	37.3%		
O=CC1=C(Sc2cccc(O)c2)c2sc3nc4n(c(=O)c3c2CC1)CCCCC4	96.5%	52.6%	84.1%	94.2%	40.9%	48.1%	> 1000 nM	> 1000 nM
O=CC1=C(Sc2ccccc2)c2sc3nc4n(c(=O)c3c2CC1)CCCCC4	85.1%			63.3%			> 10000 nM	> 10000 nM
CCCSc1c(CO)ccc2c1sc1nc3n(c(=O)c12)CCCCC3	85.9%	35.6%	78.6%	69%	13.6%	20.6%		
CCCSC1=C(C=O)CCc2c1sc1nc3n(c(=O)c21)CCC3	67.2%			16.7%				
O=CC1=C(Sc2ccc(F)cc2)c2sc3nc4n(c(=O)c3c2CC1)CCCCC4	91.9%	17.3%	27.4%	87.4%	17%	27.4%		
COc1ccc(SC2=C(C=O)CCc3c2sc2nc4n(c(=O)c32)CCCCC4)cc1	89.8%	24.6%	71.6%	89%	8.6%	53%		
CCCSC1=C(C=O)CCc2c1sc1ncn(C)c(=O)c21	55.8%	19.5%	48.2%	24.3%	12.9%	17.4%		
O=CC1=C(Sc2ccccc2O)c2sc3nc4n(c(=O)c3c2CC1)CCCCC4	91.3%	18.2%	90.1%	85.6%	32.6%	71.6%		
O=CC1=C(Sc2ccc3ccccc3c2)c2sc3nc4n(c(=O)c3c2CC1)CCCCC4	64%			55.2%	19%	40.1%		
CCCSc1c(C=O)ccc2c1sc1nc3n(c(=O)c12)CCCCC3	90.6%	28.5%	86.4%	83%	3.8%	12.7%		
O=CC1=C(SCc2ccccc2)c2sc3nc4n(c(=O)c3c2CC1)CCCCC4	30.7%			7.2%	25.8%	62.2%		
O=Cc1ccc2c(sc3nc4n(c(=O)c32)CCCCC4)c1Sc1ccccc1	88.4%	15.1%	87.9%	26.9%	inactive	inactive	> 1000 nM	> 1000 nM
O=CC1=C(SCC(=O)N2CCOCC2)c2sc3nc4n(c(=O)c3c2CC1)CCCCC4	7.8%	3.9%	39.4%	4%	3.9%	3.1%		
O=CC1=C(Sc2ccc(C(=O)O)cc2)c2sc3nc4n(c(=O)c3c2CC1)CCCCC4	22.1%			3.8%				
Cc1ccc(SC2=C(C=O)CCc3c2sc2nc4n(c(=O)c32)CCCCC4)cc1	80.6%	18.9%	69.4%	47%	8.2%	32.1%		
O=CC1=C(Sc2ccncc2)c2sc3nc4n(c(=O)c3c2CC1)CCCCC4	87.2%			79.2%	10.5%	13.7%		
